# Source: patent US20020091148A1, “3-substituted indole antiproliferative angiogenesis inhibitors” (priority 2000, published 2002)
# Tested on: certain tumor models
# Conditions: Adv. Cancer Res. 2000, 79, 1-38; cited from earlier work
row,SMILES,in vivo activity against certain tumor models
1,Cc1cc(C)c(/C=C2\C(=O)Nc3ccccc32)[nH]1 [SU5416],good in vivo activity

# Tested on: not given
# Conditions: not given
row,SMILES,melting point [°C]
1,"O=C(NN=Cc1ccc(Cl)cc1)c1[nH]c2ccccc2c1Cc1ccccc1 [Example 103, 3-benzyl-N′-((4-chlorophenyl)methylidene)-1H-indole-2-carbohydrazide]",221 to 222
2,"O=C(NN=Cc1ccc(Br)cc1)c1[nH]c2ccccc2c1Cc1ccccc1 [Example 104, 3-benzyl-N′-((4-bromophenyl)methylidene)-1H-indole-2-carbohydrazide]",227 to 229
3,"CS(=O)(=O)c1c(C(=O)NN=Cc2ccc(Cl)cc2)[nH]c2ccccc12 [Example 110, N′-((4-chlorophenyl)methylidene)-3-(methylsulfonyl)-1H-indole-2-carbohydrazide]",> 280
4,"CSc1c(C(=O)NN=Cc2ccc(Cl)cc2)[nH]c2ccccc12 [Example 108, N′-((4-chlorophenyl)methylidene)-3-(methylthio)-1H-indole-2-carbohydrazide]",232 to 235
5,"O=C(NN=Cc1ccc(Cl)cc1)c1[nH]c2ccccc2c1C(=O)Nc1ccccc1 [Example 107, 2-((2-(4-chlorobenzylidene)hydrazino)carbonyl)-N-phenyl-1H-indole-3-carboxamide]",> 260
6,"CN(C)C(=O)c1c(C(=O)NN=Cc2ccc3ccccc3c2)[nH]c2ccccc12 [Example 136, N,N-dimethyl-2-((2-(2-naphthylmethylene)hydrazino)carbonyl)-1H-indole-3-carboxamide]",256 to 260
7,"CN(N=Cc1ccco1)C(=O)c1[nH]c2ccccc2c1-c1ccccc1 [Example 149, N′-(2-furylmethylidene)-N-methyl-3-phenyl-1H-indole-2-carbohydrazide]",196 to 199
8,"CCN(CC)C(=O)c1c(C(=O)NN=Cc2ccc(Cl)cc2)[nH]c2ccccc12 [Example 105, 2-((2-(4-chlorobenzylidene)hydrazino)carbonyl)-N,N-diethyl-1H-indole-3-carboxamide]",255 to 257

# More lines, now with the values ahead:
row,melting point [°C],SMILES
1,216 to 222,"CSc1c(C(=O)NN=Cc2nccs2)[nH]c2ccccc12 [Example 109, 3-(methylthio)-N′-(1,3-thiazol-2-ylmethylidene)-1H-indole-2-carbohydrazide]"
2,210 to 212,"CN(N=Cc1ccc(Br)cc1)C(=O)c1[nH]c2ccccc2c1-c1ccccc1 [Example 151, N′-((4-bromophenyl)methylidene)-N-methyl-3-phenyl-1H-indole-2-carbohydrazide]"
3,248 to 250,"CN(N=Cc1cnc[nH]1)C(=O)c1[nH]c2ccccc2c1-c1ccccc1 [Example 152, N′-(1H-imidazol-5-ylmethylidene)-N-methyl-3-phenyl-1H-indole-2-carbohydrazide]"
4,249 to 251,"COc1c(C(=O)NN=Cc2ccc(Cl)cc2)[nH]c2ccccc12 [Example 118, N′-((4-chlorophenyl)methylidene)-3-methoxy-1H-indole-2-carbohydrazide]"
5,> 280,"CS(=O)(=O)c1c(C(=O)NN=Cc2nccs2)[nH]c2ccccc12 [Example 111, 3-(methylsulfonyl)-N′-(1,3-thiazol-2-ylmethylidene)-1H-indole-2-carbohydrazide]"
6,> 250,"O=C(NN=Cc1ccc(Cl)cc1)c1[nH]c2ccccc2c1Br [Example 119, 3-bromo-N′-((4-chlorophenyl)methylidene)-1H-indole-2-carbohydrazide]"
7,194 to 196,"CN(N=Cc1ccc(C#N)cc1)C(=O)c1[nH]c2ccccc2c1-c1ccccc1 [Example 150, N′-((4-cyanophenyl)methylidene)-N-methyl-3-phenyl-1H-indole-2-carbohydrazide]"
8,> 250,"CS(=O)(=O)c1c(C(=O)NN=Cc2cccc3ccccc23)[nH]c2ccccc12 [Example 135, 3-(methylsulfonyl)-N′-(1-naphthylmethylidene)-1H-indole-2-carbohydrazide]"
